Experimental data published in US6472516B1, “Progestin-regulated gene” (The Garvan Institute of Medical Research, priority 1995, dated 2002).
Marks after values point to notes of the source that are not given here. Numbered stars: 1 amine (or outer) side, 2 acyl side, 3 side chain; on linkers, the order of the positions; unused ones are H or OH. Bridge positions count the residues as written; N and C are the ends. Square brackets hold non-standard residues; d marks the D form. Peptide text beside a SMILES is read from it. I, II: the chains in the order shown. Actinocin(9to1) = Cc1c2oc3c(C)ccc(C(=O)[*:1])c3nc-2c(C(=O)[*:2])c(N)c1=O; NMeV = CN[C@H](C(=O)O)C(C)C; Sar = CNCC(=O)O

Key:
[1] = system: PRG1 mRNA; experiment: Northern analysis of PRG1 mRNA expression in MCF-7 cells; assay type: cell-based, human
Procedure: (§1) The sources and maintenance of the human breast cancer cell lines used in this study were as described previously (33). 184 and 184B5 normal breast epithelial cells were the kind gift of Dr. M. Stampfer (University of California, Berkley, Calif.) and were maintained in mammary epithelial growth medium (Clonetics, San Diego, Calif.). Tissue culture experiments in serum-free medium were performed as previously described (6, 27). Briefly, T-47D cells were taken from stock cultures and passaged for 6 days in phenol red-free RPMI medium supplemented with 10% charcoal-treated fetal calf serum (FCS). During this time the cells received two changes of medium at 1- to 3-day intervals. The cells were replated into replicate 150 cm^2 flasks in medium containing 10% charcoal-treated FCS and the medium replaced with serum-free medium on the next two days. Serum-free medium was supplemented with 300 nM human transferrin. In experiments involving ORG 2058 the final serum-free medium contained 10 μg/ml (1.7 μM) human insulin. Three days after completion of these pre-treatments growth factor, steroid, steroid antagonist or cycloheximide were added. Control flasks received vehicle to the same final concentration. Cell cycle phase distribution was determined by analytical DNA flow cytometry, as previously described (6, 34).
(§2) Tissue culture experiments in serum-containing medium were performed as previously described (34). The experiment with livial and actinomycin D was as for experiments in serum-containing medium except that the medium contained 5% charcoal-treated FCS. Actinomycin D was added at the same time as livial. The experiment involving “estrogen rescue” was performed as described (30). […]
(§3) Cells harvested from triplicate 150 cm^2 flasks were pooled and RNA extracted by a guanidinium-isothiocyanate-cesium chloride procedure and Northern analysis was performed as previously described with 20 μg of total RNA per lane (6, 11). […] The mRNA abundance was quantified by densitometric analysis of autoradiographs using Molecular Dynamics Densitometer and software (Molecular Dynamics, Sunnyvale, Calif.). […]

[2] = system: PRG1 mRNA; experiment: Northern analysis of PRG1 mRNA expression in T-47D cells; assay type: cell-based, human; conditions: for Induction of PRG1 mRNA by mitogen: T-47D growth-arrested by serum deprivation, 3 or 4 h, insulin 1.7 μM, heregulin 5 nM, bFGF 55 pM; for Relative mRNA Expression: relative to cells maintained in serum-free medium
Procedure: as §1
Tissue culture experiments in serum-containing medium were performed as previously described (34). The experiment with livial and actinomycin D was as for experiments in serum-containing medium except that the medium contained 5% charcoal-treated FCS. Actinomycin D was added at the same time as livial. The experiment involving “estrogen rescue” was performed as described (30). Briefly, MCF-7 cells were cultured in medium containing 5% FCS for 2 days. The antiestrogen ICI 182780 (10 nM) was then added to the medium for 48 h. after which the growth-arrested cells were treated with 100 nM 17β-estradiol, also added directly to the medium, resulting in the synchronous re-entry of cells into the cell cycle.
Cells harvested from triplicate 150 cm^2 flasks were pooled and RNA extracted by a guanidinium-isothiocyanate-cesium chloride procedure and Northern analysis was performed as previously described with 20 μg of total RNA per lane (6, 11). The membranes were hybridized overnight at 50° C. with probes labelled with [α-^32P]dCTP (Amersham Australia Pty Ltd, Castle Hill, Australia) using the Random Prime Labelling Kit (Promega, Sydney, Australia). The membranes were washed at a highest stringency of 0.2× SSC (30 mM NaCl. 3 mM sodium citrate [pH 7.0])+ 1% sodiwn dodecyl sulfate at 65° C. and exposed to Kodak X-OMAT or BIOMAX film at −70° C. Human multiple tissue Northern blots (Clontech Laboratories, Inc. Palo Alto, Calif.) were hybridized under conditions recommended by the manufacturer. The mRNA abundance was quantified by densitometric analysis of autoradiographs using Molecular Dynamics Densitometer and software (Molecular Dynamics, Sunnyvale, Calif.). The accuracy of loading was estimated by hybridizing membranes with a [γ-^32P]ATP end-labelled oligonucleotide complementary to 18S rRNA.

[3] = system: PRG1 mRNA; experiment: Northern analysis of PRG1 mRNA expression in MDA-MB-231 cells; assay type: cell-based, human
Procedure: as §1, §2, §3

[4] = system: T-47D cells; conditions: previously reported (refs 32, 54); cited from earlier work
[5] = T-47D, insulin-supplemented serum-free medium, 10 nM

In the case of C[C@]12CC[C@@H]3c4ccc(O)cc4CC[C@H]3[C@@H]1CC[C@@H]2O [17β-estradiol], the “Relative mRNA Expression” value ([1]; MCF-7, at 4 h, after ICI 182 780 pre-treatment for 48 h, relative to antiestrogen treated control) is reported as 2.0^‡ at 4 h and the “Induction of PRG1 mRNA by estrogen rescue” value ([1]; MCF-7 growth-arrested by ICI 182780 (10 nM, 48 h), then 100 nM 17β-estradiol, 4 h) is reported as 2.0 fold.

In the case of CCC1CC2C3CCC4=CC(=O)CCC4C3CCC2(C)C1C(=O)CO (stereo not drawn) [ORG 2058, 16α-ethyl-21-hydroxy-19-norpregn-4-en-3,20-dione], the “Superinduction of PRG1 mRNA relative to control” value ([2]; T-47D, ORG 2058 10 nM in presence of cycloheximide 20 μg/ml, 3 h, experiment of FIG. 8) is reported as 12 fold, the “Time by which PRG1 mRNA had returned to control levels” value [2, 5] is reported as at most 12 h and the “Time of maximal PRG1 mRNA induction” value [2, 5] is reported as 3 h. The “Maximal PRG1 mRNA induction relative to time-matched control” value ([2]; T-47D, insulin-supplemented serum-free medium, 10 nM, 3 h, experiment of FIG. 5) was 4.4 fold, the “PRG1 mRNA increase above control mRNA levels” value ([1]; MCF-7 (PR-positive), 5% FCS, 10 nM, 3 h) was “approximately 2 fold” and the “PRG1 mRNA decrease below control mRNA levels” value ([3]; MDA-MB-231 (PR-negative), 10 nM, 3 h) was “approximately 30%”. For the same compound, the “PRG1 mRNA level at 6 h after the decrease at 3 h (in words)” value ([3]; MDA-MB-231, 6 h, ORG 2058 10 nM, dexamethasone 100 nM) was “recovery”.

In the case of CC#C[C@]1(O)CC[C@H]2[C@@H]3CCC4=CC(=O)CCC4=C3[C@@H](c3ccc(N(C)C)cc3)C[C@@]21C [RU 486], the “Effect on PRG1 mRNA levels, compound alone” value ([2]; T-47D, serum-free medium with insulin, 100 nM, 3 h) is reported as “no effect”.

For Cc1c2oc3c(C)ccc(C(=O)N[C@@H]4C(=O)N[C@H](C(C)C)C(=O)N5CCC[C@H]5C(=O)N(C)CC(=O)N(C)[C@@H](C(C)C)C(=O)O[C@@H]4C)c3nc-2c(C(=O)N[C@@H]2C(=O)N[C@H](C(C)C)C(=O)N3CCC[C@H]3C(=O)N(C)CC(=O)N(C)[C@@H](C(C)C)C(=O)O[C@@H]2C)c(N)c1=O [actinomycin D] (I: T[dV]P[Sar][NMeV] / II: T[dV]P[Sar][NMeV]; ester I:1-I:C, II:1-II:C; linker I:N-II:N via Actinocin(9to1)), the “Effect on progestin induction of PRG1 mRNA” value ([2]; T-47D, actinomycin D 5 μg/ml with livial 10 nM) was “blocked”.

With C[C@@H]1C[C@@H]([C@H](O)CC2CC(=O)NC(=O)C2)C(=O)[C@@H](C)C1 [cycloheximide, Cycloheximide] the “Effect on PRG1 mRNA, compound alone” value ([2]; T-47D, cycloheximide 20 μg/ml alone, 3 h) was “increase of PRG1 mRNA to a level similar to that achieved by ORG 2058 alone” and the “Effect on progestin-mediated induction of PRG1 mRNA” value ([2]; T-47D, cycloheximide 20 μg/ml with ORG 2058 10 nM, 3 h) was “failed to block”.

For C[C@@H]1C[C@H]2[C@@H]3CCC4=CC(=O)C=C[C@]4(C)[C@@]3(F)[C@@H](O)C[C@]2(C)[C@@]1(O)C(=O)CO [dexamethasone, 9-fluro-11,17,21-trihydroxy-16-methylpregn-1,4-diene-3,20-dione], the “PRG1 mRNA as percent of control levels” value ([3]; MDA-MB-231, 100 nM, 3 h) was “approximately 60 % of control”.

For C#C[C@]1(O)CC[C@H]2[C@@H]3[C@H](C)CC4=C(CCC(=O)C4)[C@H]3CC[C@@]21C [livial, (7α, 17α)-17-hydroxy-7-methyl-19-norpregn-5(10)-en-20-yn-3-one], the “PRG1 mRNA induction (in words)” value ([2]; T-47D, 5% charcoal-treated FCS, 10 nM) was “induced” and the “PRG1 mRNA induction in presence of transcription inhibitor” value ([2]; T-47D, 5% charcoal-treated FCS, livial 10 nM with actinomycin D 5 μg/ml) was “not induced”.

For bFGF: human recombinant bFGF, the “Induction of PRG1 mRNA by mitogen” value [2] is listed as 1.9 fold, the “Relative mRNA Expression” value ([2]; T-47D, at 3 h) is listed as 2.6^† at 3 h and the “Potency as mitogen in stimulating cell cycle progression” value (shortened to “Potency as mitogen”) [4] is listed as “equipotent”.

For heregulin, the “Induction of PRG1 mRNA by mitogen” value [2] is given as 2.6 fold, the “Relative mRNA Expression” value ([2]; T-47D, at 4 h) is given as 1.9^† at 4 h and the “Potency as mitogen” value [4] is given as “one of the most potent mitogens”.

For “insulin: human insulin, Actrapid; CSL-Novo”, the “Induction of PRG1 mRNA by mitogen” value [2] is given as 2.8 fold, the “Relative mRNA Expression” value ([2]; T-47D, at 4 h) is given as 2.8^† at 4 h and the “Potency as mitogen” value [4] is given as “equipotent”.
